Data from ChEMBL document CHEMBL4680063, “G-Protein biased opioid agonists: 3-hydroxy-N-phenethyl-5-phenylmorphans with three-carbon chain substituents at C9” (RSC Med Chem, 2020).

Key:
[1] = biological target: T1, Mu-type opioid receptor (Homo sapiens, UniProt P35372); assay: Activity at human MOR expressed in U2OS cells co-expressing beta-arrestin2 EFC assessed as beta-arrestin2 EFC recruitment by Tango assay; format: ADME, cell-based
[2] = biological target: Kappa-type opioid receptor (Homo sapiens, UniProt P41145); assay: Agonist activity at human KOR expressed in CHOK1 cells assessed as inhibition of forskolin-stimulated cAMP accumulation incubated for 30 mins by luminescence assay; format: functional, cell-based, CHO-K1
[3] = biological target: T1, Mu-type opioid receptor; assay: Activity at human MOR expressed in CHOK1 cells co-expressing beta-arrestin2 EFC assessed as beta-arrestin2 EFC recruitment measured after 90 mins by PathHunter assay; format: ADME, cell-based, CHO-K1
[4] = biological target: Delta-type opioid receptor (Homo sapiens, UniProt P41143); assay: Agonist activity at human DOR expressed in CHOK1 cells assessed as inhibition of forskolin-stimulated cAMP accumulation incubated for 30 mins by luminescence assay; format: functional, cell-based, CHO-K1
[5] = biological target: T1, Mu-type opioid receptor; assay: Agonist activity at human MOR expressed in CHOK1 cells assessed as inhibition of forskolin-stimulated cAMP accumulation incubated for 30 mins by luminescence assay; format: functional, cell-based, CHO-K1
[6] = biological target: T1, Mu-type opioid receptor; assay: Agonist activity at human MOR expressed in CHOK1 cells assessed as induction of beta-arrestin recruitment measured after 90 mins by PathHunter assay relative to control; format: cell-based; conditions: CHO-K1

Sequence of Kappa-type opioid receptor (P41145 whole entry): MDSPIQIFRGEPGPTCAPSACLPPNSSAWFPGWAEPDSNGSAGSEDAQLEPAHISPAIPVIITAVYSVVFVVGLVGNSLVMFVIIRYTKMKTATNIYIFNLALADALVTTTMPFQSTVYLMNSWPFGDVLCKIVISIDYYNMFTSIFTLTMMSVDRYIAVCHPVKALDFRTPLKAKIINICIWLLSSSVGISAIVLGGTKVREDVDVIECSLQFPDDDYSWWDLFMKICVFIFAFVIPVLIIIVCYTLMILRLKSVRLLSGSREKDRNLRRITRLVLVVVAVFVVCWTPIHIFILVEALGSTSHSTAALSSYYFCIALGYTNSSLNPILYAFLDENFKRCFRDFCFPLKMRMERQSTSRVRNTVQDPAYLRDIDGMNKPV
Sequence of Delta-type opioid receptor (P41143 whole entry): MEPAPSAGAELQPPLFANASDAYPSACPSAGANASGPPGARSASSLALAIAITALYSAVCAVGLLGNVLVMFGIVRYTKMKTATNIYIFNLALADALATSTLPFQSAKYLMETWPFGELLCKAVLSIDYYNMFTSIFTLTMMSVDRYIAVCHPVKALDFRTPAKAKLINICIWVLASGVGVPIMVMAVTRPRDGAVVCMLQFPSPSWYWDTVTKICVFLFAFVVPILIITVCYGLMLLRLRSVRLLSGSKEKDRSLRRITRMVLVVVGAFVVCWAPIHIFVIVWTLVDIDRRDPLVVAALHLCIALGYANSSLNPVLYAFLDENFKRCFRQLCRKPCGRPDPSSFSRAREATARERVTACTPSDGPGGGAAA
T1 sequence (P35372 whole entry): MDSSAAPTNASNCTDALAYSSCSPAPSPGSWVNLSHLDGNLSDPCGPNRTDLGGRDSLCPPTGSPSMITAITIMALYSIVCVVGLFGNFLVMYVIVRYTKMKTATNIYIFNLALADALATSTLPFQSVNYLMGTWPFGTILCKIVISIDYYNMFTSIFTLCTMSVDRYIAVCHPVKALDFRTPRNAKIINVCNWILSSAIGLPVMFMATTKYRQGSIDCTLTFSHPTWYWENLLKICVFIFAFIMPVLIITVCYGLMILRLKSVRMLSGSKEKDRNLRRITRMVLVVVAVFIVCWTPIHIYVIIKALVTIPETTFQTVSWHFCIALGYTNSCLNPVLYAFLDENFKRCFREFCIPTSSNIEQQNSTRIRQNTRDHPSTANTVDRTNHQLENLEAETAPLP

Row | SMILES | EC50 [1] | EC50 [2] | EC50 [3] | EC50 [4] | EC50 [5] | Emax [6]
1 | OCCC[C@@H]1[C@H]2CCC[C@]1(c1cccc(O)c1)CCN2CCc1ccccc1 | > 25 µM | > 10 µM | > 25 µM | > 10000 nM | – | –
2 | COC(=O)CC[C@@H]1[C@@H]2CCC[C@@]1(c1cccc(O)c1)CCN2CCc1ccccc1 | – | 0.323 µM | > 25 µM | > 10000 nM | 854 nM | –
3 | COC(=O)/C=C/[C@H]1[C@@H]2CCC[C@@]1(c1cccc(O)c1)CCN2CCc1ccccc1 | – | > 10 µM | > 25 µM | 143 nM | 132 nM | –
4 | OC/C=C/[C@H]1[C@@H]2CCC[C@@]1(c1cccc(O)c1)CCN2CCc1ccccc1 | > 25 µM | > 10 µM | > 25 µM | > 10000 nM | – | –
5 | COC(=O)CC[C@H]1[C@@H]2CCC[C@@]1(c1cccc(O)c1)CCN2CCc1ccccc1 | 0.0125 µM | – | 0.00172 µM | > 10000 nM | 0.46 nM | –
6 | OCCC[C@H]1[C@@H]2CCC[C@@]1(c1cccc(O)c1)CCN2CCc1ccccc1 | > 25 µM | > 10 µM | > 25 µM | 80.9 nM | – | –
7 | CCOC(=O)CC[C@H]1[C@@H]2CCC[C@@]1(c1cccc(O)c1)CCN2CCc1ccccc1 | > 25 µM | 0.0353 µM | 0.0116 µM | 49.1 nM | 0.24 nM | –
8 | C[C@@H](Cc1ccsc1)NC(=O)NC[C@H](Cc1ccc(O)cc1)N(C)C | – | – | – | – | – | 4.3%
9 | COC(=O)CC[C@@H]1[C@H]2CCC[C@]1(c1cccc(O)c1)CCN2CCc1ccccc1 | > 25 µM | > 10 µM | > 25 µM | > 10000 nM | 31.3 nM | –
10 | O=C(O)CC[C@H]1[C@@H]2CCC[C@@]1(c1cccc(O)c1)CCN2CCc1ccccc1 | > 25 µM | > 10 µM | > 25 µM | > 10000 nM | 31.7 nM | –
11 | Oc1cccc([C@@]23CCC[C@H]([C@H]2O)N(CCc2ccccc2)CC3)c1 | – | 0.323 µM | 0.00608 µM | 2.6 nM | 0.017 nM | –
12 | CCC[C@H]1[C@@H]2CCC[C@@]1(c1cccc(O)c1)CCN2CCc1ccccc1 | > 25 µM | > 10 µM | > 25 µM | > 10000 nM | – | –
